Reference: patent US20240124456A1, “AZA-ERGOLINE DERIVATIVE AND PREPARATION METHOD THEREFOR AND APPLICATION THEREOF” (SHANGHAITECH UNIVERSITY, priority 2021, published 2024)
Like-named read-outs stand apart in the source and are kept apart here.

Tests used:
Type in all cases: in vivo
[1] = Pharmacokinetic properties in C57 male mice, single dose (plasma, LC-MS/MS); conditions: for AUC(0-inf): read-out: Area under the drug-time curve AUC0-inf; for AUC(0-t): read-out: Area under the drug-time curve AUC0-t; for MRT: read-out: Mean residence time MRTPO; for half-life: read-out: Terminal elimination half-life t1/2 (converted); for bioavailability: read-out: Bioavailability F; for Cmax: read-out: Drug peak concentration Cmax; for Tmax: read-out: Time to peak tmax
Procedure: 1. Test of the pharmacokinetic properties of compound (−)-I-10 administered to C57 male mice by single intragastric administration, intraperitoneal injection and intravenous injection
Compound (−)-I-10 was administered in a single dose in C57 male mice, and then blood samples were collected at different time points, the concentration of the compound in mouse plasma was determined by LC-MS/MS and the relevant pharmacokinetic parameters were calculated to investigate the pharmacokinetics of the compound in the mice.
27 male C57 mice were provided by Suzhou Zhaoyan Experimental Animal Co., Ltd., and the experiment was carried out according to Table 4 below.
0.030 mL of blood was taken from each animal through the orbit each time and anticoagulated with EDTA-K2, and the collection time points were: 0, 5, 15, 30 min, 1, 2, 4, 6, 8, 24 h after administration of the test substance. Blood samples were placed on ice after collection, and the plasma was separated by centrifugation within 30 minutes (centrifugation conditions: 5000 rpm, 10 minutes, 4° C.) and stored at −80° C. until analysis.
Data acquisition and control system software was Analyst 1.5.1 software (Applied Biosystem). The sample peak integration method of the spectrum was automatic integration; the ratio of the peak area of the sample to the peak area of the internal standard was used as an index, and regression was performed with the concentration of the sample. Regression method: linear regression with a weight factor of 1/X2. Pharmacokinetic parameters were analyzed using WinNonlin Professional v6.3 (Pharsight, USA) using non-compartmental models. Cmax was the measured maximum drug concentration in blood, the area under the drug concentration in blood-time curve AUC (0→t) was calculated by the trapezoidal method, and Tmax was the time to peak of the drug concentration in blood after administration. The experimental data were expressed by “mean=standard deviation” (Mean±[…], n≥3) or “mean” (Mean, n=2).

C57B6 male mice [2] = assay: Open field athletic ability test, MK801-induced hyperkinesia; conditions: for 45 minutes moving distance: n=8
Procedure: Experimental method: The experimental animals were C57B6 male mice, n=8 in each group. This model used C57B6 mice as experimental animals. The behavioral representation of hyperkinesia in open field environment in mice was induced by acute injection of NMDA antagonist MK801 and modeled to test the inhibitory effect of different compounds on hyperkinesia phenotype induced by MK801. All mouse behavior experiments were carried out during the light period of the mice, and the whole experiment was recorded by the camera and automatic tracking and data statistics were carried out by behavioral tracking software. The compound was administered by intraperitoneal injection. Immediately after the injection, the mice entered the open field and their movement trajectories began to record. After 30 minutes, the mice received 0.2 mg/kg of MK801 by intraperitoneal injection and returned to the open field immediately after administration and the movement trajectories were further recorded for 120 min. The accumulative moving distance of the mice was counted at a data sampling point every five minutes. Data statistics were carried out using Student-t-test, p<0.05 was *, p<0.01 was **, p<0.001 was ***, p<0.0001 was ****. The total moving distance of the mice in 0-45 minutes under the combined action of different doses of (−)-I-10 and MK801 (0.2 mg/kg) is shown in Table 7.

C57B6 male mice [3] = assay: Morris water maze, MK801 recognition impairment model; conditions: for Platform exploration time / Times of crossing platform area: MK801 model; for Times of crossing platform area: probe trial
Procedure: The experimental animals were C57B6 male mice, n=8 in each group. Firstly, mice were intraperitoneally injected with 0.2 mg/kg of MK801 twice a day for ten consecutive days to establish a recognition impairment model, and control mice were intraperitoneally injected with normal saline containing the same amount of DMSO, and then the mice were subjected to the Morris water maze test.
Experimental setup: Experiments were conducted in a blue circular water reservoir with a diameter of 130 cm. The reservoir was filled with pure water about 30 cm deep. The reservoir was divided into 4 fan-shaped areas by a cross, and the escape platform (6 cm in diameter) was located in the center of one of the fan-shaped areas and was hidden 0.5 cm below the water surface. The position where the mice entered the water was fixed at the edges of the other three fan-shaped areas. The position where the mice entered the water was basically consistent with the straight-line distance of the platform.
Acquisition phase: 30 minutes before the start of the experiment, the mice were administered intraperitoneally. After the experiment started, the mouse was put into the water with its head facing the reservoir wall, and the placement position was randomly selected from one of the three starting positions in the east, west, and south, and the underwater hidden platform was located in the north quadrant. The time taken by the mouse to find the underwater platform was recorded. […] Then the above steps were repeated 2 times at another starting position. Each animal was trained three times a day for 5 consecutive days.
Probe trial: on the second day after the last acquisition phase, the platform was removed and a 60-second probe trial began. The animal was placed in the water from the opposite side of the original platform quadrant. The number of times the animal crossed the original platform location was recorded as a detection index of spatial memory. Data statistics were carried out using Student-t-test, p<0.05 was *, p<0.01 was **, p<0.001 was ***, p<0.0001 was ****.

C57B6 male mice [4] = assay: Freezing behavior test; conditions: 10 mg/kg
Procedure: Experimental method: The experimental animals were C57B6 male mice, n=8 in each group. Mice were first injected with different compounds, and after a certain period of time (30 min or 60 min), the mice were in an upright and unnatural state by placing their forelimbs on a high glass hanging rod (about 5 cm from the ground). Then the time for the mice to maintain this state was measured, and the length of time was used to determine the freezing effect of the drug on the mice.

[5] = mouse, plasma, intravenous injection 1 mg/kg
[6] = mouse, plasma, ip, intraperitoneal injection 1 mg/kg
[7] = mouse, plasma, oral administration 5 mg/kg

CN(C)C(=O)N[C@H]1CC[C@H](CCN2CCN3c4cccc5[nH]cc(c45)C[C@H]3C2)CC1 [(−)-I-10]
pharmacokinetic properties (in words) [1]: good pharmacokinetic properties
Terminal elimination rate Kel ([1]; intraperitoneal injection 1 mg/kg): 0.886 h⁻¹
Terminal elimination rate Kel ([1]; intravenous injection 1 mg/kg): 0.805 h⁻¹
Vd ([1]; mouse, plasma, intravenous injection 1 mg/kg, read-out: Apparent volume of distribution Vdss): 4.86 L/kg
AUC(0-inf) [1, 5]: 215 ng·h/mL
AUC(0-t) [1, 5]: 211 ng·h/mL
clearance ([1]; mouse, plasma, intravenous injection 1 mg/kg, read-out: Clearance CL): 77.6 mL/min/kg
MRT [1, 5]: 1.04 h
half-life [1, 5]: 51.7 min
AUC(0-inf) [1, 6]: 175 ng·h/mL
AUC(0-t) [1, 6]: 172 ng·h/mL
bioavailability [1, 6]: 81.4%
Cmax [1, 6]: 271 ng/mL
MRT [1, 6]: 0.77 h
half-life [1, 6]: 46.9 min
Tmax [1, 6]: 5 min
AUC(0-inf) [1, 7]: 596 ng·h/mL
AUC(0-t) [1, 7]: 591 ng·h/mL
bioavailability [1, 7]: 55.9%
Cmax [1, 7]: 558 ng/mL
MRT [1, 7]: 1.49 h
half-life [1, 7]: 69 min
Tmax [1, 7]: 5 min
Terminal elimination rate Kel ([1]; oral administration 5 mg/kg): 0.604 h⁻¹
inhibition of the improvement of athletic ability induced by MK801 (in words) (C57B6 male mice [2]; 0.4/0.1/0.025 mg/kg): significantly inhibit
45 minutes moving distance (C57B6 male mice [2]; MK801 (0.2 mg/kg) + 0.00625 mg/kg intraperitoneal): 11626 cm
45 minutes moving distance (C57B6 male mice [2]; MK801 (0.2 mg/kg) + 0.025 mg/kg intraperitoneal): 8643 cm
45 minutes moving distance (C57B6 male mice [2]; MK801 (0.2 mg/kg) + 0.1 mg/kg intraperitoneal): 3833 cm
45 minutes moving distance (C57B6 male mice [2]; MK801 (0.2 mg/kg) + 0.4 mg/kg intraperitoneal): 2644 cm
improvement of MK801-induced spatial recognition impairment (in words) (C57B6 male mice [3]; 0.1 mg/kg): significantly improve
improvement of MK801-induced memory impairment (in words) (C57B6 male mice [3]; 0.1 mg/kg and 0.025 mg/kg): significantly improve
Platform exploration time (C57B6 male mice [3]; fifth day, 0.00625 mg/kg): 97.94 s
Platform exploration time (C57B6 male mice [3]; fifth day, 0.025 mg/kg): 92.23 s
Platform exploration time (C57B6 male mice [3]; fifth day, 0.1 mg/kg): 62.86 s
Platform exploration time (C57B6 male mice [3]; first day, 0.00625 mg/kg): 173.0 s
Platform exploration time (C57B6 male mice [3]; first day, 0.025 mg/kg): 161.2 s
Platform exploration time (C57B6 male mice [3]; first day, 0.1 mg/kg): 146.2 s
Platform exploration time (C57B6 male mice [3]; fourth day, 0.00625 mg/kg): 87.77 s
Platform exploration time (C57B6 male mice [3]; fourth day, 0.025 mg/kg): 96.66 s
Platform exploration time (C57B6 male mice [3]; fourth day, 0.1 mg/kg): 68.62 s
Times of crossing platform area (C57B6 male mice [3]; 0.00625 mg/kg): 2.600
Times of crossing platform area (C57B6 male mice [3]; 0.025 mg/kg): 4.500
Times of crossing platform area (C57B6 male mice [3]; 0.1 mg/kg): 5.800
Platform exploration time (C57B6 male mice [3]; second day, 0.00625 mg/kg): 145.3 s
Platform exploration time (C57B6 male mice [3]; second day, 0.025 mg/kg): 154.0 s
Platform exploration time (C57B6 male mice [3]; second day, 0.1 mg/kg): 128.5 s
Platform exploration time (C57B6 male mice [3]; third day, 0.00625 mg/kg): 108.1 s
Platform exploration time (C57B6 male mice [3]; third day, 0.025 mg/kg): 96.66 s
Platform exploration time (C57B6 male mice [3]; third day, 0.1 mg/kg): 88.38 s
freezing induction effect on mice (in words) (C57B6 male mice [4]): no freezing induction effect
Freezing time (C57B6 male mice [4]; 30 minutes after administration): 2.194 ± 0.2524 s
Freezing time (C57B6 male mice [4]; 60 minutes after administration): 2.165 ± 0.3256 s
